Data from patent publication US8628961B2, “Small molecule antagonists of phosphatidylinositol-3,4,5-triphosphate (PIP3) and uses thereof” (Tufts University, priority 2010, dated 2014).

Columns and labels:
[1] = Solubility (aqueous, cell media); assay type: physicochemical
Source text: The size of the DM-PIT-1-loaded micelles was about 15 nm with a narrow size distribution.

[2] = tested on: AMPK and ACC phosphorylation, LC3-II; assay: Metabolic stress and autophagy markers; assay type: cell-based, human
Source text: Changes in cell metabolism have emerged in recent years as an important component of PI3K/PIP3/Akt signaling, contributing to the regulation of cell viability and transformation by the PI3K/Akt pathway. Datta S R et al. (1999) Genes Dev 13:2905-27; Elstrom R L et al. (2004) Cancer Res 64:3892-9. Therefore, the possibility that PIT-1 may cause dysregulation of energy homeostasis and induction of the metabolic stress in cancer cells, which may contribute to the PIT-induced cell death, was investigated. […] Hardie D G (2007) Nat Rev Mol Cell Biol 8:774-85. […] Mathew R et al. (2007) Nat Rev Cancer 7:961-7. […] It is also consistent with the established role of Akt as an inhibitor of autophagy. […] Takeuchi H et al. (2005) Cancer Res 65:3336-46.

[3] = target: VAV2 (Homo sapiens (Human), UniProt P52735); assay: Plasma membrane translocation assay (GFP fusion); assay type: cell-based; conditions: PDGF stimulation
Method: (§1) To begin characterizing cellular activity of PITs, a PH domain translocation assay was performed, measuring PIP3-induced association of GFP-fused PH domains with the plasma membrane. This method provides useful means for monitoring status of the PH domain/PIP3 binding in the intact cells. Varnai P et al. (1999) J Biol Chem 274:10983-9. Several PH-domain-containing proteins, which are known to bind PIP3 specifically and efficiently, were examined. […] Oikawa T et al. (2004) Nat Cell Biol 6:420-6.

[4] = target: WAVE2 (Homo sapiens (Human), UniProt Q9Y6W5); assay: Plasma membrane translocation assay (GFP fusion); assay type: cell-based
Method: as §1

[5] = tested on: HUVEC cells; assay: HUVEC migration, wound healing and transwell assays; assay type: cell-based, human
Method: Two models of cell migration were used, a transwell migration model and a wound closure model. Migration of cancer and endothelial cells was evaluated using 24-transwell Boyden chamber (Costar, Bedford, Mass.) with a polystyrene membrane (6.5 mm diameter, 10 μm thickness, and 8 μm pore size). Cells were suspended in serum-free media and seeded in the upper compartment of each well (2×10^4 cells/well) in the presence or absence of different compounds at the indicated concentrations. The lower compartment contained 600 μl of serum-free culture media supplemented with growth factors. After an 8-hr incubation at 37° C., cells were fixed and stained with 0.1% crystal violet. Non-migrating cells on the upper surface of the filter were removed, and the stained cells that migrated to the lower side were photographed using a phase-contrast microscope (Nikon, Japan) in five random fields. The cells were lysed with 10% acetic acid, and colorimetric determination was made at 595 nm using Wallac Victor 3 plate reader.
Cancer or endothelial cells were seeded into fibronectin-coated 96-well plates (2×10^4 cells/well). […]
Second, HUVEC were serum starved and treated with PITs (25, 50 100 μM) or PIT-1 is (100 μM) for 8 hr, followed by bFGF (10 ng/ml) stimulation for 15 min. […] The number of cell ruffles/lamellipodia was counted in five random fields.

[6] = tested on: PI3K-PDK1-Akt signaling; assay: PI3K-PDK1-Akt signaling in growth factor-stimulated SUM159 cells; assay type: cell-based, human
[7] = tested on: cancer cells; assay: Cancer cell invasion through matrigel; assay type: cell-based
Source text: Simpson K J et al. (2004) Cancer Res 64:8694-701.

[8] = tested on: PTEN-deficient U87MG cells; assay: Sytox cell death assay, U87MG re-expressing wild-type or R130M mutant PTEN; assay type: cell-based, human; conditions: 25, 50, 100 μM, 48 hr
Method: After treatment with 25, 50, or 100 μM PIT-1 for 48 hr, cell death was analyzed using Sytox cell death assay.
Based on the critical role of PIP3-dependent […] signaling in the regulation of cell survival, the effect of PIT-1 on the cancer cell viability was tested. Cancer cells were seeded into 96-well plates (white plates for ATP assay; black plates for fluorescent assay; clear plates for MTS assay) at the density of 5-10×10^3 cells per well in 100 μl of the appropriate media. Compounds were added at a series of concentrations and incubated for different times. For the ATP assay, a luminescence-based commercial kit (CellTiter-Glo, Promega, Madison, Wis.) was used. Thirty microliters of cell lysis/ATP detection reagent was added to each well, mixed for 10 min at room temperature, and the luminescence was measured using a Wallac Victor 3 plate reader (Perkin-Elmer, Wellesley, Mass.). […] Twenty microliters of the combined MTS/PMS solution was added into each well, incubated for 4 hr at 37° C., and the absorbance at 490 nm was measured using a Wallac Victor 3 plate reader. For the Sytox cell death assay, measuring loss of plasma membrane integrity, cells were incubated with 1 μM Sytox Green reagent (Molecular Probes, Eugene, Oreg.) for 30 min at 37° C. and the fluorescence intensity was measured using Wallac Victor 3 plate reader with excitation at 485 nm and emission at 545 nm. […]

Sequence of WAVE2 (Q9Y6W5 whole entry, species assumed, the tested form may be a part): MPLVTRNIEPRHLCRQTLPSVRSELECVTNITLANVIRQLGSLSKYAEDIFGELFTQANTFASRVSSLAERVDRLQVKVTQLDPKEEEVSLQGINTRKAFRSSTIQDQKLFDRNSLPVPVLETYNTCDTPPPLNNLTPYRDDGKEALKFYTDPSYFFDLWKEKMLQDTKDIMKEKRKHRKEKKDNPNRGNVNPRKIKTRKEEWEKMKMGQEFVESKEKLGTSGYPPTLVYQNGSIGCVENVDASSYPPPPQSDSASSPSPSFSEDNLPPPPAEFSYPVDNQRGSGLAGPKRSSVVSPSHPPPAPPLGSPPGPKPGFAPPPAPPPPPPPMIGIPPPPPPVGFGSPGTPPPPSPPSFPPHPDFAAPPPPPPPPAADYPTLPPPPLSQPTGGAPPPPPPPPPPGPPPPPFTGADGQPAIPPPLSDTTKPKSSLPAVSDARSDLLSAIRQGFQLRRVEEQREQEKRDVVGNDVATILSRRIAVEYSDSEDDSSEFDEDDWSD
Sequence of VAV2 (P52735 whole entry, species assumed, the tested form may be a part): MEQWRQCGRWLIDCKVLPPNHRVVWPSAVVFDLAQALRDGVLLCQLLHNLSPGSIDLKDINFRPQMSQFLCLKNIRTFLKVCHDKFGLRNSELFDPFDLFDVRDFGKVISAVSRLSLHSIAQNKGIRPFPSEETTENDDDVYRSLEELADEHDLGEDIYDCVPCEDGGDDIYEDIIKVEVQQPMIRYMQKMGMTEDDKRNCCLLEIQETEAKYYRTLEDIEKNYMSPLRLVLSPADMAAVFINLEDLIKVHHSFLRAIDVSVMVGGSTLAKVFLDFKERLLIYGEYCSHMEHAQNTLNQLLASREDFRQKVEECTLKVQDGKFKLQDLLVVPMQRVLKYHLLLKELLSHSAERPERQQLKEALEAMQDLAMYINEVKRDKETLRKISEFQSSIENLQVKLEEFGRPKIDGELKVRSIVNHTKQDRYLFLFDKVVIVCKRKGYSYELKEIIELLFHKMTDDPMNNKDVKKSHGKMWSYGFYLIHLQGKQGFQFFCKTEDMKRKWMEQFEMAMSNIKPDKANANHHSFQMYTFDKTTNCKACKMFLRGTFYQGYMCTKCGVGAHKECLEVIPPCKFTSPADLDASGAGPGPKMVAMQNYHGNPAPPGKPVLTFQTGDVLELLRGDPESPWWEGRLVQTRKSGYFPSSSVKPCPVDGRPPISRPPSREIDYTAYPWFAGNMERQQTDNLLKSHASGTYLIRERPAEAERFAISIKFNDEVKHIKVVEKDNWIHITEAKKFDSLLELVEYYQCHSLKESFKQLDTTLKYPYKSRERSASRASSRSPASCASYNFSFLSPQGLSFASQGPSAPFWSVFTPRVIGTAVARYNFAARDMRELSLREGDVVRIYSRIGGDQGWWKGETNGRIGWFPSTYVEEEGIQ

With `O=C(NC(=S)Nc1cc([N+](=O)[O-])cc(Cl)c1O)c1ccccc1` [PIT-1] the aqueous solubility [1] was “limited aqueous solubility”, the “phosphorylation of ACC” value [2] was “Increased phosphorylation” and the “phosphorylation of AMPK” value [2] was “significant increase in the phosphorylation”. The “expression of autophagic marker LC3-II” value ([2]; U87MG cells) was “prominently increased the expression”, the “plasma membrane translocation of VAV2” value [3] was “significantly inhibited the translocation” and the “plasma membrane translocation of WAVE2” value [4] was “suppressed the plasma membrane translocation”. For the same compound, the “migration of HUVEC cells” value [5] was “efficiently blocked migration of HUVEC cells”, the “PI3K-PDK1-Akt signaling in SUM159 cells” value [6] was “significantly suppressed PI3K-PDK1-Akt signaling” and the “cancer cell invasion through matrigel” value [7] was “efficiently suppressed cancer cell invasion through matrigel”. For the same compound, the “cytotoxic effects at concentrations used in migration and invasion experiments” value ([7]; P>0.05) was “no significant cytotoxic effects”, the “acquisition of invasive phenotype by SUM-159 cells” value ([7]; reversible) was “blocked acquisition of the invasive phenotype” and the “toxicity in U87MG lacking PTEN activity versus wild-type PTEN” value [8] was “more pronounced in PTEN-deficient U87MG cells lacking PTEN activity”.
